Species: Rattus norvegicus
Assay: DrugMatrix - Regimen: Daily Repeat
Format: toxicity, organism-based, Sprague-Dawley
Parameters: regimen Daily Repeat, gender Male, age 6-8 weeks
Settings: in vivo, po, route oral GAVAGE, […]; for ABSOLUTE BASOPHIL / BASOPHIL / ABSOLUTE EOSINOPHIL / ABSOLUTE LYMPHOCYTE / ABSOLUTE MONOCYTE / ABSOLUTE SEGMENTED NEUTROPHIL / EOSINOPHIL / ERYTHROCYTE COUNT / HEMATOCRIT / HEMOGLOBIN / LEUKOCYTE COUNT / LYMPHOCYTE / MEAN CORPUSCULAR HEMOGLOBIN / MEAN CORPUSCULAR HEMOGLOBIN CONCENTRATION / MEAN CORPUSCULAR VOLUME / MONOCYTE / NEUTROPHIL / NUCLEATED RED BLOOD CELLS / PLATELET COUNT: tissue Blood; for ALANINE AMINOTRANSFERASE / ALKALINE PHOSPHATASE / ASPARTATE AMINOTRANSFERASE / BLOOD UREA NITROGEN / CARBON DIOXIDE / CHLORIDE / CHOLESTEROL / CREATINE PHOSPHOKINASE / CREATININE / GLUCOSE / LACTATE DEHYDROGENASE / LIPASE / PHOSPHORUS / POTASSIUM / SODIUM / TOTAL BILIRUBIN: tissue Plasma
[1] = 0 mg/kg, 72 h, dose level Control, time 3 day
[2] = 0 mg/kg, 120 h, dose level Control, time 5 day
[3] = 0.3 mg/kg, 72 h, dose level Low, time 3 day
[4] = 0.3 mg/kg, 120 h, dose level Low, time 5 day
[5] = 27 mg/kg, 72 h, dose level M1, time 3 day
[6] = 54 mg/kg, 72 h, dose level High, time 3 day

CN(Cc1cnc2nc(N)nc(N)c2n1)c1ccc(C(=O)N[C@@H](CCC(=O)O)C(=O)O)cc1 [METHOTREXATE]
ABSOLUTE BASOPHIL [1]: 0 CELLS/uL | BASOPHIL [1]: 0% | ABSOLUTE BASOPHIL [2]: 0 CELLS/uL | ABSOLUTE EOSINOPHIL [2]: 331.5 CELLS/uL | BASOPHIL [2]: 0% | ABSOLUTE BASOPHIL [3]: 0 CELLS/uL | ABSOLUTE EOSINOPHIL [3]: 94 CELLS/uL | ABSOLUTE LYMPHOCYTE [3]: 7221.33 CELLS/uL | ABSOLUTE MONOCYTE [3]: 172.67 CELLS/uL | ABSOLUTE SEGMENTED NEUTROPHIL [3]: 2345.33 CELLS/uL | BASOPHIL [3]: 0% | EOSINOPHIL [3]: 0.67% | ERYTHROCYTE COUNT [3]: 5.78 x10E6/uL | HEMATOCRIT [3]: 37.2% | HEMOGLOBIN [3]: 14.3 G/DL | LEUKOCYTE COUNT [3]: 9.83 x10E3/uL | LYMPHOCYTE [3]: 70% | MEAN CORPUSCULAR HEMOGLOBIN [3]: 24.77 pg | MEAN CORPUSCULAR HEMOGLOBIN CONCENTRATION [3]: 38.47 G/DL | MEAN CORPUSCULAR VOLUME [3]: 64.33 fL | MONOCYTE [3]: 1.67% | NEUTROPHIL [3]: 27.67% | NUCLEATED RED BLOOD CELLS [3]: 0 /100WBC | PLATELET COUNT [3]: 997.67 x10E3/uL | ALANINE AMINOTRANSFERASE [3]: 69 u/L | ALKALINE PHOSPHATASE [3]: 597.33 u/L | ASPARTATE AMINOTRANSFERASE [3]: 118.33 u/L | BLOOD UREA NITROGEN [3]: 12.33 mg/dL | CARBON DIOXIDE [3]: 20 mmol/L | CHLORIDE [3]: 100.67 MEQ/L | CHOLESTEROL [3]: 42.33 mg/dL | CREATINE PHOSPHOKINASE [3]: 1224.33 u/L | CREATININE [3]: 0.11 mg/dL | GLUCOSE [3]: 237.67 mg/dL | LACTATE DEHYDROGENASE [3]: 410.67 u/L | LIPASE [3]: 11.67 u/L | PHOSPHORUS [3]: 14.63 mg/dL | POTASSIUM [3]: 6.55 MEQ/L | SODIUM [3]: 141.9 MEQ/L | TOTAL BILIRUBIN [3]: 0.13 mg/dL | ABSOLUTE BASOPHIL [4]: 0 CELLS/uL | ABSOLUTE EOSINOPHIL [4]: 124.67 CELLS/uL | ABSOLUTE LYMPHOCYTE [4]: 6857.33 CELLS/uL | ABSOLUTE MONOCYTE [4]: 225.67 CELLS/uL | ABSOLUTE SEGMENTED NEUTROPHIL [4]: 959 CELLS/uL | BASOPHIL [4]: 0% | EOSINOPHIL [4]: 1.33% | ERYTHROCYTE COUNT [4]: 5.9 x10E6/uL | HEMATOCRIT [4]: 37.7% | HEMOGLOBIN [4]: 14.3 G/DL | LEUKOCYTE COUNT [4]: 8.17 x10E3/uL | LYMPHOCYTE [4]: 82.33% | MEAN CORPUSCULAR HEMOGLOBIN [4]: 24.27 pg | MEAN CORPUSCULAR HEMOGLOBIN CONCENTRATION [4]: 37.93 G/DL | MEAN CORPUSCULAR VOLUME [4]: 63.93 fL | MONOCYTE [4]: 2.67% | NEUTROPHIL [4]: 13.67% | NUCLEATED RED BLOOD CELLS [4]: 0 /100WBC | PLATELET COUNT [4]: 1097 x10E3/uL | ALANINE AMINOTRANSFERASE [4]: 52.33 u/L | ALKALINE PHOSPHATASE [4]: 510 u/L | ASPARTATE AMINOTRANSFERASE [4]: 80.33 u/L | BLOOD UREA NITROGEN [4]: 10 mg/dL | CARBON DIOXIDE [4]: 24 mmol/L | CHLORIDE [4]: 102.33 MEQ/L | CHOLESTEROL [4]: 38 mg/dL | CREATINE PHOSPHOKINASE [4]: 556.67 u/L | CREATININE [4]: 0.1 mg/dL | GLUCOSE [4]: 165.67 mg/dL | LACTATE DEHYDROGENASE [4]: 131.67 u/L | LIPASE [4]: 6.67 u/L | PHOSPHORUS [4]: 12.1 mg/dL | POTASSIUM [4]: 6.83 MEQ/L | SODIUM [4]: 142.1 MEQ/L | TOTAL BILIRUBIN [4]: 0.2 mg/dL | ABSOLUTE BASOPHIL [5]: 0 CELLS/uL | ABSOLUTE EOSINOPHIL [5]: 0 CELLS/uL | BASOPHIL [5]: 0% | EOSINOPHIL [5]: 0% | NUCLEATED RED BLOOD CELLS [5]: 0 /100WBC | CREATININE [5]: 0.19 mg/dL | TOTAL BILIRUBIN [5]: 0.13 mg/dL | ABSOLUTE BASOPHIL [6]: 0 CELLS/uL | ABSOLUTE EOSINOPHIL [6]: 68 CELLS/uL | ABSOLUTE LYMPHOCYTE [6]: 3442 CELLS/uL | ABSOLUTE MONOCYTE [6]: 42 CELLS/uL | ABSOLUTE SEGMENTED NEUTROPHIL [6]: 1648 CELLS/uL | BASOPHIL [6]: 0% | EOSINOPHIL [6]: 1% | ERYTHROCYTE COUNT [6]: 7.17 x10E6/uL | HEMATOCRIT [6]: 43.93% | HEMOGLOBIN [6]: 17.27 G/DL | LEUKOCYTE COUNT [6]: 5.2 x10E3/uL | LYMPHOCYTE [6]: 69% | MEAN CORPUSCULAR HEMOGLOBIN [6]: 24.07 pg | MEAN CORPUSCULAR HEMOGLOBIN CONCENTRATION [6]: 39.3 G/DL | MEAN CORPUSCULAR VOLUME [6]: 61.23 fL | MONOCYTE [6]: 1% | NEUTROPHIL [6]: 29% | NUCLEATED RED BLOOD CELLS [6]: 0 /100WBC | PLATELET COUNT [6]: 1149 x10E3/uL | ALANINE AMINOTRANSFERASE [6]: 26.33 u/L | ALKALINE PHOSPHATASE [6]: 163 u/L | ASPARTATE AMINOTRANSFERASE [6]: 107 u/L | BLOOD UREA NITROGEN [6]: 23 mg/dL | CARBON DIOXIDE [6]: 18.67 mmol/L | CHLORIDE [6]: 94.5 MEQ/L | CHOLESTEROL [6]: 36 mg/dL | CREATINE PHOSPHOKINASE [6]: 1782.67 u/L | CREATININE [6]: 0.13 mg/dL | GLUCOSE [6]: 207.67 mg/dL | LACTATE DEHYDROGENASE [6]: 368.67 u/L | LIPASE [6]: 37 u/L | PHOSPHORUS [6]: 11.03 mg/dL | POTASSIUM [6]: 5.79 MEQ/L | SODIUM [6]: 137 MEQ/L | TOTAL BILIRUBIN [6]: 0.2 mg/dL
